Literature values, collected in patent publication US6555140B1, “Composition and method for enhancing male fertility and libido” (priority 1999, dated 2003).

Legend:
[1] = for share of the ingested amount metabolically degraded: transported from inside the intestine into the blood stream
[2] = in water

Structure (SMILES): NCCCCNCCCN [Spermidine Free Base, Spermidine]
- share of what is ingested metabolically available [1]: about 70%
- share of the ingested amount metabolically degraded [1]: about 30%
- Solubility [2]: Soluble in water up to 50 mg/ml

Structure (SMILES): NCCCNCCCCNCCCN [Spermine Free Base, Spermine]
- share of what is ingested metabolically available [1]: about 70%
- share of the ingested amount metabolically degraded [1]: about 30%
- Solubility [2]: Soluble in water up to 50 mg/ml
